Data reported in PubChem BioAssay (NCI).
≈ marks a conversion by molar mass, not a printed value.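 Grown in 96-well plates, cells were treated for 48 hours with each compound at five concentrations. Insufficient inhibition: endpoint recorded as highest concentration tested. GI50 = concentration required for 50% inhibition of growth. TGI marks complete inhibition of growth.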 *1 amine or outer side, *2 acyl side, *3 side chain or, on linkers, in order; H or OH if unused. Where a SMILES comes first, the peptide text is derived from it. Non-standard residues stand in square brackets, D forms with d. Residues, ends and D or L forms follow the SMILES beside them. Bridges are numbered along the chain shown (N, C = ends). Roman numbers before positions name the chains, in order. [ ]: non-standard residue; d: D form. ξ: configuration not given here. *: point of attachment. Actinocin(9to1) = Cc1c2oc3c(C)ccc(C(=O)[*:1])c3nc-2c(C(=O)[*:2])c(N)c1=O; X48 = O=C1CC(C(=O)[*:2])N([*:1])C1; NMeV = CN[CH](C(=O)O)C(C)C; Boc = CC(C)(C)OC(=O)*; ξV = CC(C)C(N)C(=O)O; OBn = c1ccc(CO*)cc1; Sar = CNCC(=O)O

What was measured:
Test in all cases: growth of human tumour cells (NCI), 48 h
[1] = tested on: HCT-116 colon
[2] = tested on: OVCAR-5 ovarian
[3] = tested on: SK-MEL-28 melanoma
[4] = tested on: OVCAR-8 ovarian
[5] = tested on: A498 renal
[6] = tested on: SW-620 colon
[7] = tested on: T-47D breast
[8] = tested on: MALME-3M melanoma
[9] = tested on: MDA-N
[10] = tested on: UO-31 renal
[11] = tested on: HCT-15 colon
[12] = tested on: TK-10 renal
[13] = tested on: CCRF-CEM leukemia
[14] = tested on: OVCAR-3 ovarian
[15] = tested on: SN12C renal
[16] = tested on: MOLT-4 leukemia
[17] = tested on: ACHN renal
[18] = tested on: K-562 leukemia
[19] = tested on: NCI-H226 lung
[20] = tested on: DU-145 prostate
[21] = tested on: M14 melanoma
[22] = tested on: UACC-257 melanoma
[23] = tested on: HT29 colon
[24] = tested on: 786-0 renal
[25] = tested on: SF-539 CNS
[26] = tested on: U251 CNS
[27] = tested on: MCF7 breast
[28] = tested on: HOP-92 NSCLC
[29] = tested on: IGROV1 ovarian
[30] = tested on: SK-MEL-2 melanoma
[31] = tested on: HOP-62 NSCLC
[32] = tested on: OVCAR-4 ovarian
[33] = tested on: NCI-H460 lung
[34] = tested on: HCC-2998 colon
[35] = tested on: RXF 393 renal
[36] = tested on: LOX IMVI melanoma
[37] = tested on: SK-OV-3 ovarian
[38] = tested on: SR leukemia
[39] = tested on: PC-3 prostate
[40] = tested on: MDA-MB-435
[41] = tested on: RPMI-8226 leukemia
[42] = tested on: MDA-MB-231 breast
[43] = tested on: NCI-H23 lung
[44] = tested on: EKVX NSCLC
[45] = tested on: COLO 205 colon
[46] = tested on: NCI/ADR-RES ovarian
[47] = tested on: SF-295 CNS
[48] = tested on: SNB-19 CNS
[49] = tested on: HL-60(TB) leukemia
[50] = tested on: SK-MEL-5 melanoma
[51] = tested on: A549 NSCLC
[52] = tested on: CAKI-1 renal
[53] = tested on: UACC-62 melanoma
[54] = tested on: HS 578T breast
[55] = tested on: KM12 colon
[56] = tested on: SNB-75 CNS
[57] = tested on: BT-549 breast
[58] = tested on: SF-268 CNS
[59] = tested on: NCI-H522 lung

## Cc1c2oc3c(C)ccc(C(=O)NC4C(=O)NC(C(C)C)C(=O)N5CC(=O)CC5C(=O)N(C)CC(=O)N(C)C(C(C)C)C(=O)OC4C)c3nc-2c(C(=O)NC2C(=O)NC(C(C)C)C(=O)N3CC(=O)CC3C(=O)N(C)CC(=O)N(C)C(C(C)C)C(=O)OC2C)c(N)c1=O (configuration not stated) (I: TV[X48][Sar][NMeV] / II: TV[X48][Sar][NMeV]; ester I:1-I:C, II:1-II:C; linker I:N-II:N via Actinocin(9to1); configuration not given here)
[1]
  TGI: > 1 µM
[2]
  TGI: > 1 µM
[3]
  TGI: > 1 µM
[4]
  TGI: > 1 µM
[5]
  TGI: > 1 µM
[6]
  TGI: > 1 µM
[7]
  TGI: > 1 µM
[8]
  TGI: > 1 µM
[9]
  TGI: > 1 µM
[10]
  TGI: > 1 µM
[11]
  TGI: > 1 µM
[12]
  TGI: > 1 µM
[13]
  TGI: > 1 µM
[14]
  TGI: > 1 µM
[15]
  TGI: > 1 µM
[16]
  TGI: > 1 µM
[17]
  TGI: > 1 µM
[18]
  TGI: > 1 µM
[19]
  TGI: > 1 µM
[20]
  TGI: > 1 µM
[21]
  TGI: > 1 µM
[22]
  TGI: > 1 µM
[23]
  TGI: > 1 µM
[24]
  TGI: > 1 µM
[25]
  TGI: > 1 µM
[26]
  TGI: > 1 µM
[27]
  TGI: > 1 µM
[28]
  TGI: > 1 µM
[29]
  TGI: > 1 µM
[30]
  TGI: > 1 µM
[31]
  TGI: > 1 µM
[32]
  TGI: > 1 µM
[33]
  TGI: > 1 µM
[34]
  TGI: > 1 µM
[35]
  TGI: > 1 µM
[36]
  TGI: > 1 µM
[37]
  TGI: > 1 µM
[38]
  TGI: > 1 µM
[39]
  TGI: > 1 µM
[40]
  TGI: > 1 µM
[41]
  TGI: > 1 µM
[42]
  TGI: > 1 µM
[43]
  TGI: > 1 µM
[44]
  TGI: > 1 µM
[45]
  TGI: > 1 µM
[46]
  TGI: > 1 µM
[47]
  TGI: > 1 µM
[48]
  TGI: > 1 µM
[49]
  TGI: > 1 µM
[50]
  TGI: > 1 µM
[51]
  TGI: > 1 µM
[52]
  TGI: > 1 µM

## CCN(CC)CCOc1ccc(/C(=C(\C)Cc2ccc(OC)cc2)c2ccc(OC(=O)NCc3ccccc3)cc2)cc1
[1]
  GI50: 1.57 µM
  TGI: 2.97 µM
[2]
  GI50: 3.63 µM
  TGI: 14.6 µM
[3]
  GI50: 1.82 µM
  TGI: 3.44 µM
[4]
  GI50: 2.38 µM
  TGI: 5.69 µM
[5]
  GI50: 4.3 µM
  TGI: 17.7 µM
[6]
  GI50: 1.91 µM
  TGI: 3.59 µM
[7]
  GI50: 1.2 µM
  TGI: 4.11 µM
[8]
  GI50: 1.72 µM
  TGI: 3.3 µM
[10]
  GI50: 1.52 µM
  TGI: 3.02 µM
[11]
  GI50: 1.53 µM
  TGI: 3.23 µM
[12]
  GI50: 2.68 µM
  TGI: 6.77 µM
[13]
  GI50: 2.34 µM
  TGI: 6.45 µM
[53]
  GI50: 1.92 µM
  TGI: 3.55 µM
[14]
  GI50: 1.85 µM
  TGI: 3.47 µM
[15]
  GI50: 1.73 µM
  TGI: 3.21 µM
[16]
  GI50: 2.11 µM
  TGI: 5.73 µM
[17]
  GI50: 1.85 µM
  TGI: 3.58 µM
[18]
  GI50: 1.75 µM
  TGI: 4.52 µM
[19]
  GI50: 4.71 µM
  TGI: 18.7 µM
[54]
  GI50: 2.36 µM
  TGI: 6.16 µM
[20]
  GI50: 2.24 µM
  TGI: 5.56 µM
[55]
  GI50: 1.87 µM
  TGI: 3.89 µM
[21]
  GI50: 1.7 µM
  TGI: 3.26 µM
[22]
  GI50: 2.04 µM
  TGI: 4.2 µM
[23]
  GI50: 1.89 µM
  TGI: 4.29 µM
[24]
  GI50: 1.64 µM
  TGI: 3.04 µM
[25]
  GI50: 1.75 µM
  TGI: 3.19 µM
[26]
  GI50: 1.83 µM
  TGI: 3.43 µM
[27]
  GI50: 0.269 µM
  TGI: 2.62 µM
[28]
  GI50: 1.48 µM
  TGI: 3.17 µM
[29]
  GI50: 2.46 µM
  TGI: 6.11 µM
[30]
  GI50: 2.16 µM
  TGI: 4.9 µM
[31]
  GI50: 2.09 µM
  TGI: 4.87 µM
[32]
  GI50: 2.47 µM
  TGI: 7.51 µM
[33]
  GI50: 1.84 µM
  TGI: 3.37 µM
[34]
  GI50: 1.84 µM
  TGI: 3.62 µM
[35]
  GI50: 1.65 µM
  TGI: 3.08 µM
[36]
  GI50: 1.59 µM
  TGI: 3 µM
[56]
  GI50: 2.42 µM
  TGI: 8.48 µM
[37]
  GI50: 5.11 µM
  TGI: 18.7 µM
[38]
  GI50: 1.99 µM
  TGI: 4.31 µM
[39]
  GI50: 1.94 µM
  TGI: 3.88 µM
[40]
  GI50: 1.86 µM
  TGI: 3.97 µM
[41]
  GI50: 2.13 µM
  TGI: 4.4 µM
[57]
  GI50: 1.7 µM
  TGI: 3.36 µM
[42]
  GI50: 1.86 µM
  TGI: 3.47 µM
[43]
  GI50: 3.24 µM
  TGI: 13.3 µM
[44]
  GI50: 2.63 µM
  TGI: 11.5 µM
[45]
  GI50: 1.86 µM
  TGI: 3.76 µM
[46]
  GI50: 3.18 µM
  TGI: 11.8 µM
[47]
  GI50: 1.75 µM
  TGI: 3.3 µM
[58]
  GI50: 2.87 µM
  TGI: 10.7 µM
[48]
  GI50: 3.5 µM
  TGI: 11.6 µM
[49]
  GI50: 1.3 µM
  TGI: 2.97 µM
[50]
  GI50: 1.75 µM
  TGI: 3.16 µM
[51]
  GI50: 2.15 µM
  TGI: 4.7 µM
[59]
  GI50: 1.93 µM
  TGI: 4.24 µM
[52]
  GI50: 2.27 µM
  TGI: 6.53 µM

## CC(C)C(NC(=O)OC(C)(C)C)C(=O)NCC(=O)OCc1ccccc1 (configuration not stated) (Boc-[ξV]-Gly-OBn)
[1]
  GI50: 22 mg/L
  TGI: 52.6 mg/L
[9]
  GI50: 57.5 mg/L (≈ 158 µM)
[11]
  GI50: 31.9 mg/L
[13]
  GI50: 0.594 mg/L
  TGI: 30.8 mg/L
[14]
  GI50: 48.8 mg/L
[16]
  GI50: 52.7 mg/L
[18]
  GI50: 18.3 mg/L
  TGI: 75.1 mg/L
[54]
  GI50: 98.2 mg/L
[55]
  GI50: 51.9 mg/L
[21]
  GI50: 35.9 mg/L
[24]
  GI50: 24 mg/L
  TGI: 71.9 mg/L
[26]
  GI50: 94.9 mg/L
[27]
  GI50: 87 mg/L
[30]
  GI50: 22.5 mg/L
  TGI: 69.2 mg/L
[34]
  GI50: 48.2 mg/L
[40]
  GI50: 44.5 mg/L
[41]
  GI50: 36.1 mg/L
  TGI: 86.1 mg/L
[42]
  GI50: 43 mg/L
[45]
  GI50: 19.7 mg/L
  TGI: 40.9 mg/L
[49]
  GI50: 17.3 mg/L
  TGI: 44.2 mg/L
[59]
  GI50: 30 mg/L
